From US12351574B2, “Selective ligands for modulation of GIRK channels” (Northeastern University, priority 2018, dated 2025)

Experiments:
[1] = novel object recognition (NOR) test; format: in vivo, rat; conditions: 10 and 30 mg/kg
Experimental: Novel object recognition test (NORT): Novel object recognition test was performed in an open-field box measuring 100×100×20 cm as previously described. Prior to testing, the rats were allowed to explore the box for 5 min per day for 3 consecutive days with no objects present. Testing consisted of two 2 min trials. During a familiarization trial, two identical objects (plastic cylinders 6 cm in diameter and 12 cm tall in white and red) were placed in two adjacent corners. The animal was then released against the center of the opposite wall with its back to the objects. This was done to prevent coercion to explore the objects. The animals were regarded to be exploring when they were facing, sniffing, or biting the object with nose and/or forepaws. Immediately after familiarization, the rats received intraperitoneal (i.p.) injections of vehicle or ligands and were returned to its home cage. After a waiting period of 3 h (|T|=3 h), the rat was placed in the box again and test trial was performed. […] The times spent in exploring each object during both trials were recorded manually by using a stopwatch. […] Discrimination index (DI) was used to measure object recognition and is calculated as the difference in time exploring the novel (TN) versus familiar object (TF), then dividing this value by the total time spent exploring the two objects in the test trial. […]

[2] = molecular target: T1, human ERG (hERG) channels (Homo sapiens, UniProt Q12809); parameters: expressed in transfected cells; host or cells: Xenopus oocytes; conditions: published; cited from earlier work
T1 sequence (Q12809 whole entry): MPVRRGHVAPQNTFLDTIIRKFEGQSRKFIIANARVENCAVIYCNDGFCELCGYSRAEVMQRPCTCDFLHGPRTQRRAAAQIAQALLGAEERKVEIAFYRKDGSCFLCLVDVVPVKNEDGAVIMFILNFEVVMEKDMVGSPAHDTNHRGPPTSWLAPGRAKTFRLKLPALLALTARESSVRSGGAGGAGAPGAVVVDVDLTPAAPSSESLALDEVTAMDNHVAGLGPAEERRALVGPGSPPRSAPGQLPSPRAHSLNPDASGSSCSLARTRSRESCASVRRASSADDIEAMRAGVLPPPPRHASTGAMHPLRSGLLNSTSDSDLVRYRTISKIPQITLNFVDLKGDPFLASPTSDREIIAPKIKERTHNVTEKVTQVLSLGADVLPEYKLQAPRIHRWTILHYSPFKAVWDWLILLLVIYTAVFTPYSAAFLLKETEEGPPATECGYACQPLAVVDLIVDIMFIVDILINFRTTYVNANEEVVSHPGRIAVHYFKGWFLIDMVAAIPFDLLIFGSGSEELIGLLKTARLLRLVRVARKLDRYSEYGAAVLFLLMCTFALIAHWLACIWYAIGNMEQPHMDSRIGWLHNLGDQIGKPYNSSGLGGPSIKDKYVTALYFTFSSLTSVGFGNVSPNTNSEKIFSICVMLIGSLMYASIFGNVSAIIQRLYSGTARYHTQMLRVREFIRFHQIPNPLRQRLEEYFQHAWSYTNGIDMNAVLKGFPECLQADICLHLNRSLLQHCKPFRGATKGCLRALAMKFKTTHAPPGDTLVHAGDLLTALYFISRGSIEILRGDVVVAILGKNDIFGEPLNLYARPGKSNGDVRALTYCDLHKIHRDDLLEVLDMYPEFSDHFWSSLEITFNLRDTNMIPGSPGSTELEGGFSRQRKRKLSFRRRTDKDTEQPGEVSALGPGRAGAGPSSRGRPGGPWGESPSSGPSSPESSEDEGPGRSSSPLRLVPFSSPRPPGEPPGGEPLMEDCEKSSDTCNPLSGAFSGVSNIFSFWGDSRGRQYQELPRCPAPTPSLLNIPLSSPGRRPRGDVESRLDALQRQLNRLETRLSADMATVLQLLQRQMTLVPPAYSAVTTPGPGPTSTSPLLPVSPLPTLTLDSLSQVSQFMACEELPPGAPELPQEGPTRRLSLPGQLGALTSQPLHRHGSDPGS

[3] = molecular target: T1, human ERG (hERG) channels; conditions: 5 µM
Experimental: In FIG. 52A, human ERG (hERG) channels were expressed in Xenopus oocytes and studied by two-electrode voltage clamp (TEVC). In FIG. 52A, hERG tail-current magnitude was assessed at −50 mV, following a 4 second test step to 20 mV from a holding voltage of −100 mV. The test pulse was repeated every 10-seconds. […] Two-electrode voltage-clamp and data analysis: Whole-oocyte currents were measured by two-electrode voltage clamp (TEVC) with GeneClamp 500 (Molecular Devices), or TEC-03X (NPI) amplifiers. […] The oocytes were bathed in ND96 recording solution comprising, in mM: KCl 2, NaCl 96, MgCl2 1 and HEPES 5, buffered to pH 7.4 with KOH. Where indicated, GIRK channel currents were assessed in a high K^+ recording solution comprising, in mM: KCl 96, NaCl 2, MgCl2 1 and HEPES 5, buffered to pH 7.4 with KOH. Currents were digitized using a USB interface (National Instruments) and recorded using WinWCP software (University of Strathclyde). To study GIRK channels, oocytes were held at 0 mV, and currents were assessed by 100 ms ramps from −80 to +80 mV that were repeated every second. The effect of the reagents was determined at −80 mV, then the channels were blocked by 5 mM BaCl2. Block was expressed as the percent-current block normalized to the maximum current. Between 8-12 oocytes from different Xenopus frogs were studied per experiment.

Row | discrimination index (in words) [1] | SMILES | IC50 [2] [µM] | inhibition of the hERG tail current [3] [%]
1 | similar | Cc1cc(NC(=O)Nc2ccc(Br)s2)n(-c2ccccc2)n1 [GAT1508, 1-(5-bromothiophen-2-yl)-3-(3-methyl-1-phenyl-1H-pyrazol-5-yl)urea] | – | –
2 | – | Cc1cc(NC(=O)Nc2ccc(F)c(F)c2)n(-c2ccccc2)n1 [ML297, reference compound] | ~10 | ~40
